US12091411B2, “IRAK degraders and uses thereof” (Kymera Therapeutics, Inc., priority 2022, dated 2024)
Read-outs that look alike come from different tables or passages of the source.

Target: T1, IRAK4 (Homo sapiens, UniProt Q9NWZ3)
T1 construct: Degradation of IRAK4 in OCI-LY10 was quantitatively measured using Meso Scale Discovery technology; endogenous in cells; host or cells: OCI-LY10
T1 sequence (Q9NWZ3 1-460): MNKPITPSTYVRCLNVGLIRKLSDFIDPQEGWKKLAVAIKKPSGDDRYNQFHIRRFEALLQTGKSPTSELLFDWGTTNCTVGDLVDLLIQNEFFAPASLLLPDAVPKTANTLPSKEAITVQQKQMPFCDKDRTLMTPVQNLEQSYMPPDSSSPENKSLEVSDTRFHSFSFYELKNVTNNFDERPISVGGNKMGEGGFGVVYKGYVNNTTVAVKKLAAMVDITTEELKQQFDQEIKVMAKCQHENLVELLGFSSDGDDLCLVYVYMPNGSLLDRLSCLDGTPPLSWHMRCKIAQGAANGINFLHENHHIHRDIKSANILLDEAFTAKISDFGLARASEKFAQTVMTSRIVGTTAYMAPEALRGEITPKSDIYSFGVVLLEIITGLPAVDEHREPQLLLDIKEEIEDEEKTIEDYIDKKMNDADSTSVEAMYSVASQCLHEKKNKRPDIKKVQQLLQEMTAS
Experiment: IRAK4 MSD Degradation in OCI-LY10
Format: cell-based
Conditions: OCI-LY10 cells, MSD
Summary of the method: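 DC50, from a three-parameter logistic fit and reported as letter bins A (<0.01 μM), B, C, D (>0.2 μM or not tested), reflects IRAK4 loss measured by MSD electrochemiluminescence in OCI-LY10 lysates. Treatment: 8 doses, 1:3 steps, top 1 to 10 μM, 4 to 24 h, 37 °C.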

[1] = 4 hrs incubation, read-out: IRAK4 degradation in OCI-LY10 at 4 hrs: DC50
[2] = 24 hrs incubation, read-out: IRAK4 degradation in OCI-LY10 at 24 hrs: DC50

Cn1c(=O)n(C2CCC(=O)NC2=O)c2cccc(C3CCN(C[C@H]4CC[C@H](n5cc6cc(NC(=O)c7cccc(C#N)n7)ncc6n5)CC4)CC3(F)F)c21 (stereo partly drawn) [I-615]
DC50 [1]: > 0.2 µM
DC50 [2]: < 0.01 µM

Cn1c(=O)n(C2CCC(=O)NC2=O)c2cccc(C3CCN(C[C@H]4CC[C@H](n5cc6cc(NC(=O)c7cccc(C(F)F)n7)ncc6n5)CC4)CC3(F)F)c21 (stereo partly drawn) [I-616]
DC50 [1]: > 0.2 µM
DC50 [2]: < 0.01 µM

Cc1cccc(C(=O)Nc2cc3cn([C@H]4CC[C@H](CN5CCC(c6cccc7c6n(C)c(=O)n7C6CCC(=O)NC6=O)C(F)(F)C5)CC4)nc3cc2C(C)(C)O)n1 (stereo partly drawn) [I-617]
DC50 [1]: > 0.2 µM
DC50 [2]: < 0.01 µM

Cn1c(=O)n(C2CCC(=O)NC2=O)c2cccc(C3CCN(C[C@H]4CC[C@H](n5cc6cc(NC(=O)c7cccc(C#N)n7)c(C(C)(C)O)cc6n5)CC4)CC3(F)F)c21 (stereo partly drawn) [I-618]
DC50 [1]: > 0.2 µM
DC50 [2]: < 0.01 µM

Cn1c(=O)n(C2CCC(=O)NC2=O)c2cccc(C3CCN(C[C@H]4CC[C@H](n5cc6cc(NC(=O)c7cccc(C(F)F)n7)c(C(C)(C)O)cc6n5)CC4)CC3(F)F)c21 (stereo partly drawn) [I-619]
DC50 [1]: > 0.2 µM
DC50 [2]: < 0.01 µM

Cc1cccc(C(=O)Nc2ccc3nn([C@H]4CC[C@H](CN5CC[C@@H](c6cccc7c6n(C)c(=O)n7C6CCC(=O)NC6=O)[C@@H](F)C5)CC4)cc3c2)n1 (stereo partly drawn) [I-620]
DC50 [1]: > 0.2 µM
DC50 [2]: > 0.2 µM

Cc1cccc(C(=O)Nc2ccc3nn([C@H]4CC[C@H](CN5CC[C@@H](c6cccc7c6n(C)c(=O)n7C6CCC(=O)NC6=O)[C@H](F)C5)CC4)cc3c2)n1 (stereo partly drawn) [I-621]
DC50 [1]: > 0.2 µM
DC50 [2]: > 0.2 µM

Cc1cccc(C(=O)Nc2ccc3nn([C@H]4CC[C@H](CN5CC[C@H](c6cccc7c6n(C)c(=O)n7C6CCC(=O)NC6=O)[C@@H](F)C5)CC4)cc3c2)n1 (stereo partly drawn) [I-622]
DC50 [1]: > 0.2 µM
DC50 [2]: > 0.2 µM

Cc1cccc(C(=O)Nc2ccc3nn([C@H]4CC[C@H](CN5CC[C@H](c6cccc7c6n(C)c(=O)n7C6CCC(=O)NC6=O)[C@H](F)C5)CC4)cc3c2)n1 (stereo partly drawn) [I-623]
DC50 [1]: > 0.2 µM
DC50 [2]: > 0.2 µM

Cn1c(=O)n(C2CCC(=O)NC2=O)c2cccc([C@@H]3CCN(C[C@H]4CC[C@H](n5cc6cc(NC(=O)c7cccc(C#N)n7)ccc6n5)CC4)C[C@@H]3F)c21 (stereo partly drawn) [I-624]
DC50 [1]: > 0.2 µM
DC50 [2]: > 0.2 µM

Cn1c(=O)n(C2CCC(=O)NC2=O)c2cccc([C@@H]3CCN(C[C@H]4CC[C@H](n5cc6cc(NC(=O)c7cccc(C#N)n7)ccc6n5)CC4)C[C@H]3F)c21 (stereo partly drawn) [I-625]
DC50 [1]: > 0.2 µM
DC50 [2]: < 0.01 µM

Cn1c(=O)n(C2CCC(=O)NC2=O)c2cccc([C@H]3CCN(C[C@H]4CC[C@H](n5cc6cc(NC(=O)c7cccc(C#N)n7)ccc6n5)CC4)C[C@@H]3F)c21 (stereo partly drawn) [I-626]
DC50 [1]: > 0.2 µM
DC50 [2]: > 0.2 µM

Cn1c(=O)n(C2CCC(=O)NC2=O)c2cccc([C@H]3CCN(C[C@H]4CC[C@H](n5cc6cc(NC(=O)c7cccc(C#N)n7)ccc6n5)CC4)C[C@H]3F)c21 (stereo partly drawn) [I-627]
DC50 [1]: > 0.2 µM
DC50 [2]: > 0.2 µM

Cn1c(=O)n(C2CCC(=O)NC2=O)c2cccc([C@@H]3CCN(C[C@H]4CC[C@H](n5cc6cc(NC(=O)c7cccc(C(F)F)n7)ccc6n5)CC4)C[C@@H]3F)c21 (stereo partly drawn) [I-628]
DC50 [1]: > 0.2 µM
DC50 [2]: > 0.2 µM

Cn1c(=O)n(C2CCC(=O)NC2=O)c2cccc([C@@H]3CCN(C[C@H]4CC[C@H](n5cc6cc(NC(=O)c7cccc(C(F)F)n7)ccc6n5)CC4)C[C@H]3F)c21 (stereo partly drawn) [I-629]
DC50 [1]: > 0.2 µM
DC50 [2]: < 0.01 µM

Cn1c(=O)n(C2CCC(=O)NC2=O)c2cccc([C@H]3CCN(C[C@H]4CC[C@H](n5cc6cc(NC(=O)c7cccc(C(F)F)n7)ccc6n5)CC4)C[C@@H]3F)c21 (stereo partly drawn) [I-630]
DC50 [1]: > 0.2 µM
DC50 [2]: > 0.2 µM

Cn1c(=O)n(C2CCC(=O)NC2=O)c2cccc([C@H]3CCN(C[C@H]4CC[C@H](n5cc6cc(NC(=O)c7cccc(C(F)F)n7)ccc6n5)CC4)C[C@H]3F)c21 (stereo partly drawn) [I-631]
DC50 [1]: > 0.2 µM
DC50 [2]: > 0.2 µM

Cc1cccc(C(=O)Nc2cc3cn([C@H]4CC[C@H](CN5CC[C@@H](c6cccc7c6n(C)c(=O)n7C6CCC(=O)NC6=O)[C@@H](F)C5)CC4)nc3cn2)n1 (stereo partly drawn) [I-632]
DC50 [1]: > 0.2 µM
DC50 [2]: > 0.2 µM

Cc1cccc(C(=O)Nc2cc3cn([C@H]4CC[C@H](CN5CC[C@@H](c6cccc7c6n(C)c(=O)n7C6CCC(=O)NC6=O)[C@H](F)C5)CC4)nc3cn2)n1 (stereo partly drawn) [I-633]
DC50 [1]: > 0.2 µM
DC50 [2]: < 0.01 µM

Cc1cccc(C(=O)Nc2cc3cn([C@H]4CC[C@H](CN5CC[C@H](c6cccc7c6n(C)c(=O)n7C6CCC(=O)NC6=O)[C@@H](F)C5)CC4)nc3cn2)n1 (stereo partly drawn) [I-634]
DC50 [1]: > 0.2 µM
DC50 [2]: > 0.2 µM

Cc1cccc(C(=O)Nc2cc3cn([C@H]4CC[C@H](CN5CC[C@H](c6cccc7c6n(C)c(=O)n7C6CCC(=O)NC6=O)[C@H](F)C5)CC4)nc3cn2)n1 (stereo partly drawn) [I-635]
DC50 [1]: > 0.2 µM
DC50 [2]: > 0.2 µM

Cn1c(=O)n(C2CCC(=O)NC2=O)c2cccc([C@@H]3CCN(C[C@H]4CC[C@H](n5cc6cc(NC(=O)c7cccc(C#N)n7)ncc6n5)CC4)C[C@@H]3F)c21 (stereo partly drawn) [I-636]
DC50 [1]: > 0.2 µM
DC50 [2]: > 0.2 µM

Cn1c(=O)n(C2CCC(=O)NC2=O)c2cccc([C@@H]3CCN(C[C@H]4CC[C@H](n5cc6cc(NC(=O)c7cccc(C#N)n7)ncc6n5)CC4)C[C@H]3F)c21 (stereo partly drawn) [I-637]
DC50 [1]: > 0.2 µM
DC50 [2]: < 0.01 µM

Cn1c(=O)n(C2CCC(=O)NC2=O)c2cccc([C@H]3CCN(C[C@H]4CC[C@H](n5cc6cc(NC(=O)c7cccc(C#N)n7)ncc6n5)CC4)C[C@@H]3F)c21 (stereo partly drawn) [I-638]
DC50 [1]: > 0.2 µM
DC50 [2]: < 0.01 µM

Cn1c(=O)n(C2CCC(=O)NC2=O)c2cccc([C@H]3CCN(C[C@H]4CC[C@H](n5cc6cc(NC(=O)c7cccc(C#N)n7)ncc6n5)CC4)C[C@H]3F)c21 (stereo partly drawn) [I-639]
DC50 [1]: > 0.2 µM
DC50 [2]: > 0.2 µM

Cn1c(=O)n(C2CCC(=O)NC2=O)c2cccc([C@@H]3CCN(C[C@H]4CC[C@H](n5cc6cc(NC(=O)c7cccc(C(F)F)n7)ncc6n5)CC4)C[C@@H]3F)c21 (stereo partly drawn) [I-640]
DC50 [1]: > 0.2 µM
DC50 [2]: > 0.2 µM

Cn1c(=O)n(C2CCC(=O)NC2=O)c2cccc([C@@H]3CCN(C[C@H]4CC[C@H](n5cc6cc(NC(=O)c7cccc(C(F)F)n7)ncc6n5)CC4)C[C@H]3F)c21 (stereo partly drawn) [I-641]
DC50 [1]: > 0.2 µM
DC50 [2]: < 0.01 µM

Cn1c(=O)n(C2CCC(=O)NC2=O)c2cccc([C@H]3CCN(C[C@H]4CC[C@H](n5cc6cc(NC(=O)c7cccc(C(F)F)n7)ncc6n5)CC4)C[C@@H]3F)c21 (stereo partly drawn) [I-642]
DC50 [1]: > 0.2 µM
DC50 [2]: > 0.2 µM

Cn1c(=O)n(C2CCC(=O)NC2=O)c2cccc([C@H]3CCN(C[C@H]4CC[C@H](n5cc6cc(NC(=O)c7cccc(C(F)F)n7)ncc6n5)CC4)C[C@H]3F)c21 (stereo partly drawn) [I-643]
DC50 [1]: > 0.2 µM
DC50 [2]: > 0.2 µM

Cc1cccc(C(=O)Nc2cc3cn([C@H]4CC[C@H](CN5CC[C@@H](c6cccc7c6n(C)c(=O)n7C6CCC(=O)NC6=O)[C@@H](F)C5)CC4)nc3cc2C(C)(C)O)n1 (stereo partly drawn) [I-644]
DC50 [1]: > 0.2 µM
DC50 [2]: > 0.2 µM

Cc1cccc(C(=O)Nc2cc3cn([C@H]4CC[C@H](CN5CC[C@@H](c6cccc7c6n(C)c(=O)n7C6CCC(=O)NC6=O)[C@H](F)C5)CC4)nc3cc2C(C)(C)O)n1 (stereo partly drawn) [I-645]
DC50 [1]: > 0.2 µM
DC50 [2]: < 0.01 µM

Cc1cccc(C(=O)Nc2cc3cn([C@H]4CC[C@H](CN5CC[C@H](c6cccc7c6n(C)c(=O)n7C6CCC(=O)NC6=O)[C@@H](F)C5)CC4)nc3cc2C(C)(C)O)n1 (stereo partly drawn) [I-646]
DC50 [1]: > 0.2 µM
DC50 [2]: > 0.2 µM

Cc1cccc(C(=O)Nc2cc3cn([C@H]4CC[C@H](CN5CC[C@H](c6cccc7c6n(C)c(=O)n7C6CCC(=O)NC6=O)[C@H](F)C5)CC4)nc3cc2C(C)(C)O)n1 (stereo partly drawn) [I-647]
DC50 [1]: > 0.2 µM
DC50 [2]: > 0.2 µM

Cn1c(=O)n(C2CCC(=O)NC2=O)c2cccc([C@@H]3CCN(C[C@H]4CC[C@H](n5cc6cc(NC(=O)c7cccc(C#N)n7)c(C(C)(C)O)cc6n5)CC4)C[C@@H]3F)c21 (stereo partly drawn) [I-648]
DC50 [1]: > 0.2 µM
DC50 [2]: > 0.2 µM

Cn1c(=O)n(C2CCC(=O)NC2=O)c2cccc([C@@H]3CCN(C[C@H]4CC[C@H](n5cc6cc(NC(=O)c7cccc(C#N)n7)c(C(C)(C)O)cc6n5)CC4)C[C@H]3F)c21 (stereo partly drawn) [I-649]
DC50 [1]: > 0.2 µM
DC50 [2]: < 0.01 µM

Cn1c(=O)n(C2CCC(=O)NC2=O)c2cccc([C@H]3CCN(C[C@H]4CC[C@H](n5cc6cc(NC(=O)c7cccc(C#N)n7)c(C(C)(C)O)cc6n5)CC4)C[C@@H]3F)c21 (stereo partly drawn) [I-650]
DC50 [1]: > 0.2 µM
DC50 [2]: > 0.2 µM

Cn1c(=O)n(C2CCC(=O)NC2=O)c2cccc([C@H]3CCN(C[C@H]4CC[C@H](n5cc6cc(NC(=O)c7cccc(C#N)n7)c(C(C)(C)O)cc6n5)CC4)C[C@H]3F)c21 (stereo partly drawn) [I-651]
DC50 [1]: > 0.2 µM
DC50 [2]: > 0.2 µM

Cn1c(=O)n(C2CCC(=O)NC2=O)c2cccc(C3CCN(C[C@H]4CC[C@H](n5cc6cc(NC(=O)c7cccc(C(F)F)n7)c(C(C)(C)O)cc6n5)CC4)C[C@@H]3F)c21 (stereo partly drawn) [I-652]
DC50 [1]: > 0.2 µM
DC50 [2]: > 0.2 µM

Cn1c(=O)n(C2CCC(=O)NC2=O)c2cccc([C@@H]3CCN(C[C@H]4CC[C@H](n5cc6cc(NC(=O)c7cccc(C(F)F)n7)c(C(C)(C)O)cc6n5)CC4)C[C@H]3F)c21 (stereo partly drawn) [I-653]
DC50 [1]: > 0.2 µM
DC50 [2]: < 0.01 µM
